Literature values as cited in PubChem BioAssay AID1259409 (Chemical Carcinogenesis Research Information System (CCRIS), 2018).

System: rodent chemically induced tumor inhibition, incidence and multiplicity
Assay: CCRIS tumor inhibitor studies
Settings: Dose [Inhibitor]: 0, Route [Inhibitor]: DERMAL, Species: MOUSE, Strain/Sex: SENCAR/FEMALE, Target Tissue: Type of Lesion: SKIN: PAPILLOMA

SMILES: C#Cc1ccc2ccc3cccc4ccc1c2c34
- tumour outcome (control, treated, inhibition, significance) (Carcinogen: 7,12-DIMETHYLBENZ[A]ANTHRACENE, 57-97-6, 0.044 NMOL IN 0.2 ML ACETONE APPLIED TO BACK ONCE 5 MIN PRIOR TO CARCINOGEN DOSE (STUDY DURATION: 26 WK), Dose [Carcinogen]: 10 NMOL IN 0.2 ML ACETONE APPLIED TO BACK ONCE.): 100%, 93%, 7%, not calculated
- tumour outcome (control, treated, inhibition, significance) (Carcinogen: 7,12-DIMETHYLBENZ[A]ANTHRACENE, 57-97-6, 0.44 NMOL IN 0.2 ML ACETONE APPLIED TO BACK ONCE 5 MIN PRIOR TO CARCINOGEN DOSE (STUDY DURATION: 20 WK), Dose [Carcinogen]: 10 NMOL IN 0.2 ML ACETONE APPLIED TO BACK ONCE.): 100%, 50%, 50%, not calculated
- outcome (Carcinogen: 7,12-DIMETHYLBENZ[A]ANTHRACENE, 57-97-6, 0.44 NMOL IN 0.2 ML ACETONE APPLIED TO BACK ONCE 5 MIN PRIOR TO CARCINOGEN DOSE (STUDY DURATION: 26 WK), Dose [Carcinogen]: 10 NMOL IN 0.2 ML ACETONE APPLIED TO BACK ONCE.): 100%, 100%, 0, not calculated
- tumour outcome (control, treated, inhibition, significance) (Carcinogen: 7,12-DIMETHYLBENZ[A]ANTHRACENE, 57-97-6, 4.4 NMOL IN 0.2 ML ACETONE APPLIED TO BACK ONCE 5 MIN PRIOR TO CARCINOGEN DOSE (STUDY DURATION: 26 WK), Dose [Carcinogen]: 10 NMOL IN 0.2 ML ACETONE APPLIED TO BACK ONCE.): 100%, 83%, 17%, not calculated
- tumour outcome (control, treated, inhibition, significance) (Carcinogen: 7,12-DIMETHYLBENZ[A]ANTHRACENE, 57-97-6, 22 NMOL IN 0.2 ML ACETONE APPLIED TO BACK ONCE 5 MIN PRIOR TO CARCINOGEN DOSE (STUDY DURATION: 26 WK), Dose [Carcinogen]: 10 NMOL IN 0.2 ML ACETONE APPLIED TO BACK ONCE.): 100%, 60%, 40%, not calculated
- tumour outcome (control, treated, inhibition, significance) (Carcinogen: 7,12-DIMETHYLBENZ[A]ANTHRACENE, 57-97-6, 44 NMOL IN 0.2 ML ACETONE APPLIED TO BACK ONCE 5 MIN PRIOR TO CARCINOGEN DOSE (STUDY DURATION: 26 WK), Dose [Carcinogen]: 10 NMOL IN 0.2 ML ACETONE APPLIED TO BACK ONCE.): 100%, 35%, 65%, not calculated
- tumour outcome (control, treated, inhibition, significance) (Carcinogen: 7,12-DIMETHYLBENZ[A]ANTHRACENE, 57-97-6, 440 NMOL IN 0.2 ML ACETONE APPLIED TO BACK ONCE 5 MIN PRIOR TO CARCINOGEN DOSE (STUDY DURATION: 20 WK), Dose [Carcinogen]: 10 NMOL IN 0.2 ML ACETONE APPLIED TO BACK ONCE.): 100%, 24%, 76%, not calculated
- tumour outcome (control, treated, inhibition, significance) (Carcinogen: 7,12-DIMETHYLBENZ[A]ANTHRACENE, 57-97-6, 4400 NMOL IN 0.2 ML ACETONE APPLIED TO BACK ONCE., Dose [Carcinogen]: 10 NMOL IN 0.2 ML ACETONE APPLIED TO BACK ONCE.): 100%, 0%, 100%, not calculated
- tumour outcome (control, treated, inhibition, significance) (Carcinogen: BENZO[A]PYRENE, 50-32-8, 22 NMOL IN 0.2 ML ACETONE APPLIED TO BACK ONCE 5 MIN PRIOR TO CARCINOGEN DOSE (STUDY DURATION: 26 WK), Dose [Carcinogen]: 200 NMOL IN 0.2 ML ACETONE APPLIED TO BACK ONCE.): 100%, 91%, 9%, not calculated
- tumour outcome (control, treated, inhibition, significance) (Carcinogen: BENZO[A]PYRENE, 50-32-8, 44 NMOL IN 0.2 ML ACETONE APPLIED TO BACK ONCE 5 MIN PRIOR TO CARCINOGEN DOSE (STUDY DURATION: 26 WK), Dose [Carcinogen]: 200 NMOL IN 0.2 ML ACETONE APPLIED TO BACK ONCE.): 100%, 96%, 4%, not calculated
- tumour outcome (control, treated, inhibition, significance) (Carcinogen: BENZO[A]PYRENE, 50-32-8, 440 NMOL IN 0.2 ML ACETONE APPLIED TO BACK ONCE 5 MIN PRIOR TO CARCINOGEN DOSE (STUDY DURATION: 26 WK), Dose [Carcinogen]: 200 NMOL IN 0.2 ML ACETONE APPLIED TO BACK ONCE.): 100%, 74%, 26%, not calculated
- tumour outcome (control, treated, inhibition, significance) (Carcinogen: BENZO[A]PYRENE, 50-32-8, 4400 NMOL IN 0.2 ML ACETONE APPLIED TO BACK ONCE 5 MIN PRIOR TO CARCINOGEN DOSE (STUDY DURATION: 20 WK), Dose [Carcinogen]: 200 NMOL IN 0.2 ML ACETONE APPLIED TO BACK ONCE.): 75%, 59%, 21%, not calculated
- tumour outcome (control, treated, inhibition, significance) (Carcinogen: BENZO[A]PYRENE, 50-32-8, 4400 NMOL IN 0.2 ML ACETONE APPLIED TO BACK ONCE 5 MIN PRIOR TO CARCINOGEN DOSE (STUDY DURATION: 26 WK), Dose [Carcinogen]: 200 NMOL IN 0.2 ML ACETONE APPLIED TO BACK ONCE.): 100%, 71%, 29%, not calculated
- tumour outcome (control, treated, inhibition, significance) (Carcinogen: BENZO[A]PYRENE, 50-32-8, 22000 NMOL IN 0.2 ML ACETONE APPLIED TO BACK ONCE 5 MIN PRIOR TO CARCINOGEN DOSE (STUDY DURATION: 20 WK), Dose [Carcinogen]: 200 NMOL IN 0.2 ML ACETONE APPLIED TO BACK ONCE.): 75%, 35%, 53%, not calculated
- tumour outcome (control, treated, inhibition, significance) (Carcinogen: BENZO[A]PYRENE, 50-32-8, 44000 NMOL IN 0.2 ML ACETONE APPLIED TO BACK ONCE 5 MIN PRIOR TO CARCINOGEN DOSE (STUDY DURATION: 20 WK), Dose [Carcinogen]: 200 NMOL IN 0.2 ML ACETONE APPLIED TO BACK ONCE.): 75%, 22%, 71%, not calculated
- tumour outcome (control, treated, inhibition, significance) (Carcinogen: N-METHYL-N'-NITRO-N-NITROSOGUANIDINE, 70-25-7, 4400 NMOL IN 0.2 ML ACETONE APPLIED TO BACK ONCE 5 MIN PRIOR TO CARCINOGEN DOSE (STUDY DURATION: 20 WK), Dose [Carcinogen]: 2500 NMOL IN 0.2 ML ACETONE APPLIED TO BACK ONCE.): 78%, 78%, 0%, not significant
